These results are taken from ChEMBL document CHEMBL4627342, “Novel pyridone EP4 agonists featuring allylic alcohol ω-chains” (Bioorg Med Chem Lett, 2020).

A value given as a limit tells only on which side of the number the result lay.

What all share (type): functional, cell-based
The target of test [1] is T1, Prostaglandin E2 receptor EP4 subtype (Homo sapiens, UniProt P35408). Description: Agonist activity at human EP4 receptor expressed in HEK293 cells by calcium-5 dye based FLIPR assay relative to control.
T1 sequence (P35408 whole entry): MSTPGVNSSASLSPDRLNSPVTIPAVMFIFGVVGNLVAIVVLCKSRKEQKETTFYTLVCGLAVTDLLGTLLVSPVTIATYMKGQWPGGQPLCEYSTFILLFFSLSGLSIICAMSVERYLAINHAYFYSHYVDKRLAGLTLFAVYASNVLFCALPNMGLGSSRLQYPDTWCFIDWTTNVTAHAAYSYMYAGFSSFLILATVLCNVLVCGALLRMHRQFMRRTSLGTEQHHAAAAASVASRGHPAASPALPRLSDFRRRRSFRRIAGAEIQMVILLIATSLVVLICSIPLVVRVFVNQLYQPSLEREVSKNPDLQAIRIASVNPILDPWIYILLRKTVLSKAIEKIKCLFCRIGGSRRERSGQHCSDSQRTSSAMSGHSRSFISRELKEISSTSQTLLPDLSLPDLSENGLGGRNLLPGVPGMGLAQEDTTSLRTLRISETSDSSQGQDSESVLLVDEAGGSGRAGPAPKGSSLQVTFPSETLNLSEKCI
In test [2] the target is T1, Prostaglandin E2 receptor EP4 subtype. The test can be described thus: Agonist activity at human EP4 receptor expressed in HEK293 cells by calcium-5 dye based FLIPR assay.
Test [3] has as its target Prostaglandin E2 receptor EP2 subtype (Homo sapiens, UniProt P43116). The test can be described thus: Agonist activity at human EP2 receptor expressed in HEK293 cells by calcium-5 dye based FLIPR assay.
The target of test [4] is T2, Prostaglandin E2 receptor EP1 subtype (Homo sapiens, UniProt P34995).
T2 sequence (P34995 whole entry): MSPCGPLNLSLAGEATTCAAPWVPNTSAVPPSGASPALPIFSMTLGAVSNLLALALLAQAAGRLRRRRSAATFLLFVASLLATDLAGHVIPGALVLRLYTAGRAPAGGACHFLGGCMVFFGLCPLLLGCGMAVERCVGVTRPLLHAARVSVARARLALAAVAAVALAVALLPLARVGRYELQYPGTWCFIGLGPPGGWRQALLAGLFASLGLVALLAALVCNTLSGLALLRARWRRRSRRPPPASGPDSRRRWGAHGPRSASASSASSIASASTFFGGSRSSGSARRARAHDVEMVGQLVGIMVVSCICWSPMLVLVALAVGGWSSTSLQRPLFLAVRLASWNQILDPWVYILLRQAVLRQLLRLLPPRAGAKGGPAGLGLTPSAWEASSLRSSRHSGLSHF
The test can be described thus: Agonist activity at human EP1 receptor expressed in HEK293 cells by calcium-5 dye based FLIPR assay.

Test [5] deals with T3, Prostaglandin E2 receptor EP3 subtype (Homo sapiens, UniProt P43115).
T3 sequence (P43115 whole entry): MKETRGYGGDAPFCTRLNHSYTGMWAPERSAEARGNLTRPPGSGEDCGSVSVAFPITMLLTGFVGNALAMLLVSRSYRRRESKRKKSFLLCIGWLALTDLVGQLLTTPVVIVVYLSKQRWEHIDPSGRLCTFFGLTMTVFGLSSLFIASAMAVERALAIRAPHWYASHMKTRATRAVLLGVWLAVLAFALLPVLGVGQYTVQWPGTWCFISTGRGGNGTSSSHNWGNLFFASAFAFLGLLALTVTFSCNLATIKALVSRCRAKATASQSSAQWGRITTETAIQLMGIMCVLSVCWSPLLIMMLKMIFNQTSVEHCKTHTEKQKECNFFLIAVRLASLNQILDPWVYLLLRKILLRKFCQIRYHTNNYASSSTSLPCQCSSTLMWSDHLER
The test can be described thus: Agonist activity at human EP3 receptor expressed in HEK293 cells by calcium-5 dye based FLIPR assay.

Sequence of Prostaglandin E2 receptor EP2 subtype (P43116 whole entry): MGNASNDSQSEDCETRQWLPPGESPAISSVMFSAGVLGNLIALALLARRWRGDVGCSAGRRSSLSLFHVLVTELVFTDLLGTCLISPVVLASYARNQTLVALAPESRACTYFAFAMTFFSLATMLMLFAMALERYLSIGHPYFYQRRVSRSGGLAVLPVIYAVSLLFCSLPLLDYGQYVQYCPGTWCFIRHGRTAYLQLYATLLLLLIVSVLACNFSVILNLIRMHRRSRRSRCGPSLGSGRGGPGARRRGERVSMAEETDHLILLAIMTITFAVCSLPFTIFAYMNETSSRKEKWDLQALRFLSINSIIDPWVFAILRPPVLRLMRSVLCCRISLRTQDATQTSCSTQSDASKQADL

On to `CCCCCC(O)/C=C/c1c(Cl)cc(Cl)c(=O)n1CCc1ccc(C(=O)O)cc1` (racemic) [listing 1 of 2 here], for which the Emax in test [1] came out at 129%.

Turning to `CCCCCC(O)/C=C/c1c(Cl)cc(Cl)c(=O)n1CCc1ccc(C(=O)O)cc1` (single isomer, unassigned; ent-9) [listing 1 of 2 here], the Emax in test [1] amounted to 136%.

Regarding `CCCCCC(O)/C=C/c1c(Cl)cc(Cl)c(=O)n1CCc1ccc(C(=O)O)cc1` (single isomer, unassigned; ent-9) [listing 2 of 2 here], in test [2], the half-maximal effective concentration (EC50) came to 0.06 µM.

Regarding `CCCCCC(O)/C=C/c1c(Cl)cc(Cl)c(=O)n1CCc1ccc(C(=O)O)cc1` (racemic) [listing 2 of 2 here], the concentration for a half-maximal effect (EC50) in test [3] is > 10 µM; in test [4] it was > 10 µM; in test [5], > 10 µM; in test [2], 0.007 µM.

Regarding `CCCCCC(O)/C=C/c1c(Cl)cc(Cl)c(=O)n1CCCCCCC(=O)O` (centres undefined), the 50% effective concentration (EC50) is > 10 µM in test [3], > 10 µM in test [4], > 10 µM in test [5] and 0.16 µM in test [2]. Moreover, the Emax in test [1] is 123%.

With `CCCCCC(C)(O)/C=C/c1c(Cl)cc(Cl)c(=O)n1CCc1ccc(C(=O)O)cc1` (centres undefined), the concentration giving a half-maximal response (EC50) in test [3] was 4.7 µM; in test [4], > 10 µM; in test [5] it was > 10 µM; in test [2] it was 0.029 µM. In addition, the Emax in test [1] worked out at 139%.

In the case of `CCCCCC(O)CCc1c(Cl)cc(Cl)c(=O)n1CCc1ccc(C(=O)O)cc1` (centres undefined), the EC50 in test [3] is 1.5 µM; in test [4], > 10 µM; in test [5], > 10 µM; in test [2], 0.0049 µM. Also, the Emax in test [1] came to 138%.

On to `CCCCCC(O)/C=C/c1c(Br)cc(Br)c(=O)n1CCCCCCC(=O)O` (centres undefined), for which the EC50 in test [3] is > 10 µM; in test [4], > 10 µM; in test [5], > 10 µM; in test [2], 0.36 µM. Further, in test [1], the Emax was determined as 99%.

Regarding `CCCCCC(O)CCc1cccc(=O)n1CCCCCCC(=O)O` (centres undefined), the EC50 in test [3] is > 10 µM; in test [4], 2.35 µM; in test [5], 2.7 µM; in test [2] it was 0.55 µM. For the same compound, in test [1], the Emax is 103%.

Regarding `CCCCCC(O)/C=C/c1c(Cl)cc(Cl)c(=O)n1CCc1ccc(C(=O)O)cc1` (stereo in doubt; 9) [listing 1 of 2 here], the Emax in test [1] was determined as 146%.

Regarding `CCCCCC(O)/C=C/c1c(Cl)cc(Cl)c(=O)n1CCc1ccc(C(=O)O)cc1` (stereo in doubt; 9) [listing 2 of 2 here], the EC50 in test [2] turned out to be 0.013 µM.
